The source of these data is patent US20250041307A1, “Uses of Bicyclic Compounds for the Treatment of Diseases” (Athira Pharma, Inc., priority 2021, published 2025).

One data set has as its system HGF/MET system. Description: Phospho-MET ELISA. It counts as cell-based. The note with it: HEK293 cells; with 1 ng/mL recombinant HGF; 15 minutes; augmentation of MET phosphorylation (pMET ELISA). An outline of the steps:
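Serum-starved (≥8 h) HEK293 cells treated with compound plus 1 ng/mL recombinant HGF for 15 min at 37° C in triplicate, then lysed in RIPA. Equal protein (50–100 μg, BCA-normalized) run in pMET sandwich ELISA, A450 read. Responses scaled 1–10 between 1 ng/mL and 10 ng/mL HGF means, using peak efficacy.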

Data set [1] is described as follows: Parallel artificial membrane permeability assay (PAMPA). It counts as in vitro ADME. The conditions noted are these: PBS, room temperature for 5 hours, 200 uM in donor well. The method in brief: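 Compounds in PBS (initial donor concentration 200 uM) placed in donor wells against PBS acceptor, 5 replicates, incubated 5 hours at room temperature. Donor and acceptor concentrations quantified by UV plate reading against per-compound 6-point standard curves; permeability and membrane retention calculated from concentrations, volumes, filter area and time.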
For orientation: PAMPA measures passive passage across an artificial lipid membrane.

Data set [2] has as its system hepatocyte (HepG2) cell cultures. Description: Cytotoxicity assay (LDH release). The conditions noted are these: HepG2 cells, 48 hours, 0.1 to 100 μM. It counts as cell-based. The method, then: This experiment was designed to obtain a preliminary assessment of cytotoxicity.
HepG2 cells were plated in 96-well cell culture plates and allowed to attach overnight at 37° C., 5% CO2 in EMEM+10% FBS. Treatments were made in complete media (EMEM+10% FBS) and included a dilution series of test compounds from 0.1 to 100 μM. Known cytotoxin cerivastatin was used as a positive assay control and prepared at a final concentration of 0.5 μM.
Growth media was replaced with treatment media (EMEM+10% FBS containing test compound dissolved in DMSO) and cells were incubated with test compounds for 48 hours. At the end of the incubation period, supernatant media from each well was transferred to a new plate and LDH assay working solution was added. LDH assay solution undergoes a colorimetric reaction in proportion to the amount of lactate dehydrogenase (an intracellular protein that was only found in the media in the presence of lysed cells) in the media. Color reaction was quantified by measurement of absorbance at a wavelength of 490 nm.
The signal range of the assay was determined by no manipulation in a negative control treatment and full lysis of all cells in a lysis control sample. Compounds that increase the level of cytotoxicity more than 20% above negative control samples were considered cytotoxic in this assay.
(Release of lactate dehydrogenase indicates damage to the cell membrane.)

Data set [3] in a line: In vitro stability in simulated gastric and intestinal fluids. It counts as in vitro ADME. The note with it: 37° C.; for SGF, compound remaining after 4 hours: simulated gastric fluid pH 1.2, 5 μM; for SGF + Enz, compound remaining after 4 hours: simulated gastric fluid with 3.2 mg/ml pepsin; for SGF + Enz, compound remaining after 4 hours / SIF, compound remaining after 4 hours: 5 μM; for SIF, compound remaining after 4 hours: simulated intestinal fluid pH 6.8 with 10 mg/ml pancreatin. As for the experimental part:
Bioavailability can be estimated by compound stability when exposed to conditions in the body. As an initial assessment of stability properties in a variety of conditions present in animals, exemplary compounds were tested for stability in a battery of simulated body compartments. Compounds were tested for stability in the following solutions: simulated gastric fluid (SGF: 34.2 mM NaCl, pH 1.2), simulated gastric fluid with the digestive enzyme pepsin (SGF+Enzyme: SGF with 3.2 mg/ml pepsin), simulated intestinal fluid with the mixture of enzymes in porcine pancreatin (SIF+Enzyme: 28.7 mM NaH2PO4, 105.7 mM NaCl, pH 6.8, 10 mg/ml pancreatin), rat plasma, and human plasma.
Test compounds were incubated at a final concentration of 5 μM in the above solutions at 37° C. with samples removed at the following time points: 0, 1, 2, and 4 hours. Reactions were stopped and prepared for quantification by addition of excess quench solution containing an internal standard (acetonitrile, 200 ng/mL bucetin). Test compound and internal standard in each sample was quantified by LC-MS/MS, and after internal normalization to bucetin, test compound concentration was expressed as a percentage of concentration at the 0-hour time point. Stability in the relevant test solution was then determined by the percent remaining at the 4-hour time point.

On to `CC1C(=O)N(CCC2CCC2)CC2N(C(=O)c3ccc(C(F)(F)F)cc3)CCC(=O)N12` (stereo not drawn) [Compound 20], for which the Potency entry in the data set with HGF/MET system was “+ (+ indicates maximum potency at or above 100 nM)”. In data set [1], the Papp at 5 h, 200 uM is less than 2 ×10⁻⁶ cm/s. The Cytotoxicity result in data set [2] is recorded as “++++ (++++ indicates non-toxic at 100 μM)”. Further, in data set [3], the “SGF, compound remaining after 4 hours” value is on record as “+++ (+++ indicates 80-99% compound remaining after 4 hours)”; the “SGF + Enz, compound remaining after 4 hours” value (shortened to “SGF + Enz, compound remaining”) is “+++ (+++ indicates 80-99% compound remaining after 4 hours)”; the “SIF, compound remaining after 4 hours” value is reported as “+++ (+++ indicates 80-99% compound remaining after 4 hours)”.

For the molecule `CCCCN1CC2N(C(=O)c3ccc(OC(F)F)cc3)CCC(=O)N2C(C)C1=O` (stereo not drawn) [Compound 17], the Potency result in the data set with HGF/MET system is recorded as “+++ (+++ indicates maximum potency at or above 1 nM)”. In data set [1], the Papp at 5 h, 200 uM was more than 2 ×10⁻⁶ cm/s. Further, the Cytotoxicity entry in data set [2] was “++++ (++++ indicates non-toxic at 100 μM)”. Besides, in data set [3], the “SGF, compound remaining after 4 hours” value is “+++ (+++ indicates 80-99% compound remaining after 4 hours)”; the “SGF + Enz, compound remaining” value is reported as “+++ (+++ indicates 80-99% compound remaining after 4 hours)”; the “SIF, compound remaining after 4 hours” value was “+++ (+++ indicates 80-99% compound remaining after 4 hours)”.

As for `C=CCCN1CC2N(C(=O)c3ccc(C(F)(F)F)cc3)CCC(=O)N2C(C)C1=O` (stereo not drawn) [Compound 22], the Potency entry in the data set with HGF/MET system is “+++ (+++ indicates maximum potency at or above 1 nM)”. In data set [1], this molecule had a Papp at 5 h, 200 uM of less than 2 ×10⁻⁶ cm/s. Moreover, the Cytotoxicity entry in data set [2] was “++++ (++++ indicates non-toxic at 100 μM)”. Moreover, in data set [3], the “SGF, compound remaining after 4 hours” value is given as “+++ (+++ indicates 80-99% compound remaining after 4 hours)”; the “SGF + Enz, compound remaining” value is given as “+++ (+++ indicates 80-99% compound remaining after 4 hours)”; the “SIF, compound remaining after 4 hours” value is “+++ (+++ indicates 80-99% compound remaining after 4 hours)”.

`CC1C(=O)N(CCC2CCCC2)CC2N(C(=O)c3ccc(C(F)(F)F)cc3)CCC(=O)N12` (stereo not drawn) [Compound 19]: the Potency result in the data set on HGF/MET system is recorded as “+++ (+++ indicates maximum potency at or above 1 nM)”. The molecule further registered a Papp at 5 h, 200 uM in data set [1] of less than 2 ×10⁻⁶ cm/s. Further, the Cytotoxicity entry in data set [2] is listed as “++++ (++++ indicates non-toxic at 100 μM)”. Also, in data set [3], the “SGF, compound remaining after 4 hours” value is recorded as “+++ (+++ indicates 80-99% compound remaining after 4 hours)”; the “SGF + Enz, compound remaining” value is “++ (++ indicates 40-79% compound remaining after 4 hours)”; the “SIF, compound remaining after 4 hours” value is given as “+ (+ indicates 20-39% compound remaining after 4 hours)”.

For `CCC(C)CN1CC2N(C(=O)c3ccc(C(F)(F)F)c(Cl)c3)CCC(=O)N2C(C)C1=O` (stereo not drawn) [Compound 12, 1-(3-chloro-4-(trifluoromethyl)benzoyl)-6-methyl-8-(2-methylbutyl)hexahydro-4H-pyrazino[1,2-a]pyrimidine-4,7(6H)-dione], the Potency result with HGF/MET system is “++ (++ indicates maximum potency at or above 10 nM)”. The same molecule had a Papp at 5 h, 200 uM in data set [1] of less than 2 ×10⁻⁶ cm/s. Moreover, the Cytotoxicity result in data set [2] is on record as “++++ (++++ indicates non-toxic at 100 μM)”. In data set [3], the “SGF, compound remaining after 4 hours” value is given as “+++ (+++ indicates 80-99% compound remaining after 4 hours)”; the “SGF + Enz, compound remaining” value is reported as “+++ (+++ indicates 80-99% compound remaining after 4 hours)”; the “SIF, compound remaining after 4 hours” value was “++ (++ indicates 40-79% compound remaining after 4 hours)”.

In the case of `CCC(C)CN1CC2N(Cc3ccc(O)nc3)CCC(=O)N2[C@@H](C)C1=O` (stereo partly drawn) [Compound 7a], the Potency result in the data set with HGF/MET system was “++ (++ indicates maximum potency at or above 10 nM)”. Further, the Papp at 5 h, 200 uM in data set [1] is more than 10 ×10⁻⁶ cm/s. Also, in data set [2], the Cytotoxicity entry is listed as “++++ (++++ indicates non-toxic at 100 μM)”. For the same molecule, in data set [3], the “SGF, compound remaining after 4 hours” value was “++++ (++++ indicates 100% compound remaining after 4 hours)”; the “SGF + Enz, compound remaining” value is “+++ (+++ indicates 80-99% compound remaining after 4 hours)”; the “SIF, compound remaining after 4 hours” value is recorded as “++ (++ indicates 40-79% compound remaining after 4 hours)”.

For `CCC(C)CN1CC2N(C(=O)c3ccc(F)cc3)CCC(=O)N2C(C)C1=O` (stereo not drawn) [Compound 11, 1-(4-fluorobenzoyl)-6-methyl-8-(2-methylbutyl)hexahydro-4H-pyrazino[1,2-a]pyrimidine-4,7(6H)-dione], in the data set with HGF/MET system, the Potency entry is reported as “+++ (+++ indicates maximum potency at or above 1 nM)”. Also, the apparent permeability coefficient (Papp) at 5 h, 200 uM in data set [1] is more than 2 ×10⁻⁶ cm/s. Moreover, the Cytotoxicity result in data set [2] was “++++ (++++ indicates non-toxic at 100 μM)”. In addition, in data set [3], the “SGF, compound remaining after 4 hours” value is listed as “+++ (+++ indicates 80-99% compound remaining after 4 hours)”; the “SGF + Enz, compound remaining” value is listed as “+++ (+++ indicates 80-99% compound remaining after 4 hours)”; the “SIF, compound remaining after 4 hours” value is on record as “++++ (++++ indicates 100% compound remaining after 4 hours)”.

As to `CCC(C)CN1CC2N(Cc3ccc(OC(F)F)cc3)CCC(=O)N2[C@@H](C)C1=O` (stereo partly drawn) [Compound 6a], the Potency result with HGF/MET system is reported as “+ (+ indicates maximum potency at or above 100 nM)”. In addition, in data set [1], the Papp at 5 h, 200 uM was less than 2 ×10⁻⁶ cm/s. For the same molecule, the Cytotoxicity result in data set [2] is reported as “++++ (++++ indicates non-toxic at 100 μM)”. Moreover, in data set [3], the “SGF, compound remaining after 4 hours” value is listed as “+++ (+++ indicates 80-99% compound remaining after 4 hours)”; the “SGF + Enz, compound remaining” value is recorded as “+ (+ indicates 20-39% compound remaining after 4 hours)”; the “SIF, compound remaining after 4 hours” value is “++ (++ indicates 40-79% compound remaining after 4 hours)”.

`CCC(C)CN1CC2N(C(=O)c3ccc(O)cc3)CCC(=O)N2[C@@H](C)C1=O` (stereo partly drawn) [Compound 8a]: in the data set with HGF/MET system, the Potency entry is reported as “+ (+ indicates maximum potency at or above 100 nM)”. The Papp at 5 h, 200 uM in data set [1] is more than 10 ×10⁻⁶ cm/s. Moreover, the Cytotoxicity result in data set [2] is “++++ (++++ indicates non-toxic at 100 μM)”. In data set [3], the “SGF, compound remaining after 4 hours” value is on record as “++++ (++++ indicates 100% compound remaining after 4 hours)”; the “SGF + Enz, compound remaining” value is given as “+++ (+++ indicates 80-99% compound remaining after 4 hours)”; the “SIF, compound remaining after 4 hours” value is “+++ (+++ indicates 80-99% compound remaining after 4 hours)”.

Take `CCC(C)CN1CC2N(C(=O)c3ccc(C(F)(F)F)cc3)CCC(=O)N2[C@@H](C)C1=O` (stereo partly drawn) [Compound 1a]: the Potency result with HGF/MET system is given as “++++ (++++ indicates maximum potency at or above 0.1 nM)”. In data set [1], this molecule returned an apparent permeability (Papp) at 5 h, 200 uM of more than 2 ×10⁻⁶ cm/s. Besides, the Cytotoxicity entry in data set [2] is on record as “++++ (++++ indicates non-toxic at 100 μM)”. For the same molecule, in data set [3], the “SGF, compound remaining after 4 hours” value is “++++ (++++ indicates 100% compound remaining after 4 hours)”; the “SGF + Enz, compound remaining” value is listed as “++++ (++++ indicates 100% compound remaining after 4 hours)”; the “SIF, compound remaining after 4 hours” value was “++++ (++++ indicates 100% compound remaining after 4 hours)”.

As to `CCC(C)CN1CC2N(C(=O)c3ccc(OC(F)F)cc3)CCC(=O)N2[C@@H](C)C1=O` (stereo partly drawn) [Compound 2a], in the data set with HGF/MET system, the Potency result is “++ (++ indicates maximum potency at or above 10 nM)”. The Papp at 5 h, 200 uM in data set [1] is less than 2 ×10⁻⁶ cm/s. The Cytotoxicity result in data set [2] is on record as “++++ (++++ indicates non-toxic at 100 μM)”. Moreover, in data set [3], the “SGF, compound remaining after 4 hours” value is “++++ (++++ indicates 100% compound remaining after 4 hours)”; the “SGF + Enz, compound remaining” value is listed as “+++ (+++ indicates 80-99% compound remaining after 4 hours)”; the “SIF, compound remaining after 4 hours” value was “++++ (++++ indicates 100% compound remaining after 4 hours)”.

For orientation: Papp means the rate of passage across a membrane or cell layer, normalised by area and donor concentration.
